Source: article PMC10535004, “Investigation of Peptides for Molecular Recognition of C-Reactive Protein–Theoretical and Experimental Studies” (Analytical Chemistry, 2023)
Entries after “also recorded” stand apart in the source; their conditions may differ.

B1: P3 clone (M13 phage exposing the P3 peptide) (other)
chain: VHWDFRQWWQPS
notes: peptide exposed on the M13 phage clone P3; the library is described in the Supporting Information; also called P3 phage; source: M13 bacteriophage clone from phage display; not shown: M13 bacteriophage (peptide exposed on the phage)
B2: P9 clone (M13 phage exposing the P9 peptide) (other)
chain: SWFSDWDLELHA
notes: peptide exposed on the M13 phage clone P9; also called P9 phage; source: M13 bacteriophage clone from phage display; not shown: M13 bacteriophage (peptide exposed on the phage)
B3: P3 peptide (peptide)
peptide: VHWDFRQWWQPS
notes: 12-mer identified by phage display against CRP; immobilised on gold plates for PM-IRRAS, whose method is in the Supporting Information; also called peptide P3; source: synthetic peptide
B4: P2 peptide (peptide)
peptide: GGSDPEGMQGNY
notes: 12-mer identified by phage display against CRP; Immobilised on gold plates for PM-IRRAS; method is in the Supporting Information; also called peptide P2; source: synthetic peptide

Assays:
C-reactive protein (CRP) = molecular target: T1, C-reactive protein (CRP) (Homo sapiens, UniProt P02741); experiment: PM-IRRAS of protein-peptide complex on gold; format: binding; details: complex immobilized on gold; peptide 100 μg mL-1, CRP 50 μg mL-1 in PBS
T1 construct: purchased Biorbyt (UK)
T1 sequence (P02741 19-224): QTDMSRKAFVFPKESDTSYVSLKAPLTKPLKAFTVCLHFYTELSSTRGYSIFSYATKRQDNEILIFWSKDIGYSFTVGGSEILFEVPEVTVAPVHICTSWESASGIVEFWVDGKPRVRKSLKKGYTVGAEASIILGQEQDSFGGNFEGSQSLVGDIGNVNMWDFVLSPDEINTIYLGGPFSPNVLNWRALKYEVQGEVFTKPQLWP
Description: (§1) 2.2. PM-IRRS analysis (polarisation modulation infrared reflection absorption
(§2) Three types o f samples were prepared and analysed: (a) peptide solution in PBS (100 μg mL-1), (b)
(§3) CRP solution in PBS (50 μg mL-1), and (c) protein -peptide complex. The complex was prepared

[1] = PM-IRRAS of peptide layers on gold; format: physicochemical; details: for secondary structure on gold (in words): amide I band, peptide 100 μg mL-1 in PBS
Description: as §1, §2, §3

[2] = TEM analysis of peptide fibers; format: physicochemical; details: 1 mg mL-1 in PBS
Description: 2. Surface characterisation
Suspensions of selected phages (10^9 pfu mL-1) in PBS and corresponding peptides (1 mg mL-1) in PBS were adsorbed onto carbon-coated copper grids (Sigma) for 3 min, stained with 1.5% uracyl acetate. The samples were photographed using Tecani Spirit BioTWIN microscope at 120kV, and images were processed by iTEM program. […]

C-reactive protein [3] = molecular target: T2, C-reactive protein (human, UniProt P02741 19-224); experiment: ELISA; phage clones on CRP, phages detected by the enzymatic reaction of tagged anti-M13 antibodies, absorbance at 450 nm, compared with WT phage
T2 construct: C-reactive protein (CRP), cyclic pentamer of five identical, noncovalently connected subunits of 206 amino acids each (printed); PDB 3PVO was used only for docking; also called CRP
T2 sequence (looked up): T1 sequence (P02741 19-224)

C-reactive protein [4] = molecular target: T2, C-reactive protein; experiment: differential pulse voltammetry (electrochemical); P3 peptide covalently immobilised on TESPSA-silanised ITO, blocked with 1% BSA; 20 uL protein in PBS pH 7.4 for 30 min at room temperature; 1 mM Fc(CH2OH)2 in PBS as redox probe; drop of peak current fitted with the Hill equation, Kd = KA^n; details: both partners purified
C-reactive protein [5] = molecular target: T2, C-reactive protein; experiment: PM-IRRAS; peptides immobilised on gold plates; spectra of peptide, CRP and the protein-peptide complex compared; details: both partners purified
[6] = immobilized on gold, assuming helical conformation

Row | Molecule | peptide-CRP complex by PM-IRRAS (in words) (C-reactive protein (CRP)) | secondary structure on gold (in words) [1] | fiber structure of peptide (in words) [2] | ELISA signal, fold over WT phage (C-reactive protein [3]) | other results
1 | GGSDPEGMQGNY [P2] | the P2-CRP complex is formed, but the effect of the P2 on the CRP secondary structure is different compared to P9 | higher amount of disordered structures in the secondary structure | loose fibers, which are unordered and without forming a specific structure | – | orientation of helix axis (in words) [1, 6]: nearly parallel to the gold surface; amide I band position ([1]; peptide immobilized on gold): 1674 cm–1
2 | SWFSDWDLELHA [P9] | the secondary structure of the complex may be affected | presence of β-sheets; also recorded: contains β and α or disordered peptide chains | The fibers self-assemble into unique structures called twisted nanoribbons | – | angle between the helical axis and the surface [1, 6]: about 48 °
3 | B1 | – | – | – | 13 fold | –
4 | B2 | – | – | – | 16 fold | –
5 | B3 | – | – | – | – | Kd (C-reactive protein [4]): 35 ± 1.2 nM
6 | B4 | – | – | – | – | binding result (C-reactive protein [5]): binds
